Source: patent US20260098080A1, “A MODIFIED PROTEIN SCAFFOLD AND USE THEREOF” (EVOLVERITAS BIOTECHNOLÓGIAI KORLÁTOLT FELELOSSÉGU TÁRSASÁG, priority 2022, published 2026)
Bridges are numbered along the chain shown (N, C = ends). Where no end group is shown, it is not given here.

Target: fXIa (Homo sapiens, UniProt P03951)
Assay: IC50 on human blood coagulation factor fXIa
Assay type: biochemical
Settings: 3.3 nM enzyme
Experimental: The measurements were done using non-binding microtiter plates (Greiner; #655901) in 100 μL final volume. After some pilot experiments to find the proper inhibitor concentration range, the maximal inhibitor concentration was set to 20 μM for MASP-1, 10 μM for fXIa and 40 μM for fIXa and fXIIa inhibition, and twofold serial dilutions were prepared from the proteins of the present invention. To these solutions, […] to reach a previously optimized final concentration, 10 nM for MASP-1, 50 nM for fIXa, 3.3 nM for fXIa and 27.5 nM for fXIIa.
The samples were incubated for 10 minutes at room temperature. After adding the substrate (150 μM Z-Lys-S-Benzyl and 300 μM 4,4′-dithiodipyridine (DTDP) co-substrate for MASP-1; 150 μM Z-Gly-Arg-S-Benzyl and 300 μM DTDP co-substrate for fIXa; 300 μM Cbz-GPR-pNA for fXIa and 100 μM H-D-PFR-pNA for fXIIa). The reaction buffer was 50 mM Tris-HCl, 150 mM NaCl, 5 mM CaCl2), 0.1% PEG-8000 pH 7.4 for MASP-1; 20 mM HEPES, 145 mM NaCl, 0.05% Triton-X100 pH 7.4 for fIXa and fXIa; which was complemented with 5 mM CaCl2) for fXIIa.
The efficacies of the proteins of the present invention were determined in the form of (IC50) values corresponding to inhibitor concentrations that provide 50% inhibition.

fXIa, sequence (P03951 388-625 limits assumed): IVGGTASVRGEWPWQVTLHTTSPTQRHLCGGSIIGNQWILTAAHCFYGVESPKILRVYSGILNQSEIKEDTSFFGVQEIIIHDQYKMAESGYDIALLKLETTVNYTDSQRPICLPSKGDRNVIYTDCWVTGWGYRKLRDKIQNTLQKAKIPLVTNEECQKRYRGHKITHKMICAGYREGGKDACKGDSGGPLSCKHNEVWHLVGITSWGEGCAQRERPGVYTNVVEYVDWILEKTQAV
fXIa, sequence (P03951 19-387 partner limits assumed): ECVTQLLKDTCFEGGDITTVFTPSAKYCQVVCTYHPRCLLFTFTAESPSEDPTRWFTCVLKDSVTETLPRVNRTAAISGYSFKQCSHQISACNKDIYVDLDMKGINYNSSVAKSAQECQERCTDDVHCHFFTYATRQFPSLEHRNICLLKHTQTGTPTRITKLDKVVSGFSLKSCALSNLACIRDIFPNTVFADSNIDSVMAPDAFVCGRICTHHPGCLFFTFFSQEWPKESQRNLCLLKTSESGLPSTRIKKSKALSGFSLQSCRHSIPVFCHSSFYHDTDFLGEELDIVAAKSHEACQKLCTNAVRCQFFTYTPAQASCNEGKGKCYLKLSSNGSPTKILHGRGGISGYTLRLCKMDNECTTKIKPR

Sequence | IC50 [µM]
KPDFCFLENDPGPCRALKRRYFYNNQTKQCERFYYGGCFGNMNNFVTLEECKNICEDG (disulfide 5-55, 14-38, 30-51) [EVO23] | 0.5
KPDFCFLENDPGPCRALKRRYFYNNQTKQCERFYYGGCLGNMNNFETLEECKNICEDG (disulfide 5-55, 14-38, 30-51) [EVO24] | 0.5
